Measured values from ChEMBL document CHEMBL4840342, “The spectrum between substrates and inhibitors: Pinpointing the binding mode of dengue protease ligands with modulated basicity and hydrophobicity” (Bioorg Med Chem, 2021).
Residues, ends and D or L forms follow the SMILES beside them. *: point of attachment. NHBn = c1ccc(CN*)cc1; Bz = O=C(c1ccccc1)*; NHiPr = CC(C)N*

Experiments:
[1] = target: Genome polyprotein (dengue virus type 2) (UniProt P29990); experiment: Inhibition of Dengue virus 2 NS2B-NS3 protease using Abz-Nle-Lys-Arg-Arg-Ser-Tyr(3-NO2)-NH2 as substrate at 50 uM preincubated with enzyme for 15 mins followed by substrate addition and measured for 15 mins by FRET assay relative to control; conditions: time 30.0 min
Genome polyprotein = Genome polyprotein (dengue virus type 2, UniProt P29990); experiment: Inhibition of Dengue virus 2 NS2B-NS3 protease using Abz-Nle-Lys-Arg-Arg-Ser-Tyr(3-NO2)-NH2 as substrate preincubated with enzyme for 15 mins followed by substrate addition and measured for 15 mins by FRET assay relative to control

Row | Structure (SMILES) | inhibition [1] [%] | IC50 (Genome polyprotein) [µM]
1 | N=C(N)NCCC[C@H](NC(=O)c1ccccc1)C(=O)N[C@@H](CCCCN)C(=O)NCc1ccc(OCc2ccccc2)cc1 | 63.3 | 
2 | N=C(N)NCCC[C@H](NC(=O)c1ccccc1)C(=O)N[C@@H](CCCCN)C(=O)N[C@@H](C(=O)NCc1ccc(C(N)=O)cc1)c1ccc(OCc2ccccc2)cc1 | 103 | 0.4
3 | N=C(N)NCCC[C@H](NC(=O)c1ccccc1)C(=O)N[C@@H](CCCCN)C(=O)NCc1ccccc1 (Bz-Arg-Lys-NHBn) | 41.3 | 
4 | CC[C@@H](C)[C@H](NC(=O)[C@H](NC(=O)[C@H](CCCCN)NC(=O)[C@H](CCCNC(=N)N)NC(=O)c1ccccc1)c1ccc(OCc2ccccc2)cc1)C(N)=O | 58.1 | 
5 | N=C(N)NCCC[C@H](NC(=O)c1ccccc1)C(=O)N[C@@H](CCCCN)C(=O)N[C@@H](C(=O)NCc1ccc(CN)cc1)c1ccc(OCc2ccccc2)cc1 | 99.7 | 0.3
6 | NCCCC[C@H](NC(=O)c1ccccc1)C(=O)N[C@H](C(=O)N[C@H](C(N)=O)C1CCCCC1)c1ccc(OCc2ccccc2)cc1 | 93.1 | 9.9
7 | NCCCC[C@H](NC(=O)c1ccccc1)C(=O)N[C@@H](C(=O)N[C@H](C(N)=O)C1CCCCC1)c1ccc(OCc2ccccc2)cc1 | 99.6 | 9.4
8 | CC(C)NC(=O)[C@H](CCCCN)NC(=O)[C@H](CCCNC(=N)N)NC(=O)c1ccccc1 (Bz-Arg-Lys-NHiPr) | 28.8 | 
9 | NCCCC[C@H](NC(=O)[C@@H](NC(=O)c1ccccc1)c1ccc(OCc2ccccc2)cc1)C(=O)N[C@@H](C(N)=O)c1ccc(OCc2ccccc2)cc1 | 98.8 | 6.6
10 | NCCCC[C@H](NC(=O)c1ccccc1)C(=O)N[C@H](Cc1ccc(N)cc1)C(=O)NCc1ccc(OCc2ccccc2)cc1 | 94.5 | 35.8
11 | N=C(N)NCCC[C@H](NC(=O)c1ccccc1)C(=O)N[C@@H](Cc1ccc(N)cc1)C(=O)NCc1ccc(OCc2ccccc2)cc1 | 69.3 | 
12 | NCCCC[C@H](NC(=O)c1ccccc1)C(=O)N[C@@H](Cc1ccc(N)cc1)C(=O)NCc1ccc(OCc2ccccc2)cc1 | < 20 | 
13 | N=C(N)NCCC[C@H](NC(=O)c1ccccc1)C(=O)N[C@@H](CCCCN)C(=O)Nc1ccc(OCc2ccccc2)cc1 | 59.8 | 
14 | N=C(N)Nc1ccc(C[C@H](NC(=O)[C@@H](NC(=O)c2ccccc2)c2ccc(OCc3ccccc3)cc2)C(=O)N[C@@H](C(N)=O)c2ccc(OCc3ccccc3)cc2)cc1 | 101 | 1.7
15 | N=C(N)NCCC[C@H](NC(=O)c1ccccc1)C(=O)N[C@@H](CCCCN)C(=O)NCCc1ccc(OCc2ccccc2)cc1 | 63.9 | 
16 | NCCCC[C@H](NC(=O)c1ccccc1)C(=O)N[C@@H](C(=O)N[C@@H](C(N)=O)C1CCCCC1)c1ccc(OCc2ccccc2)cc1 | 98 | 7.9
17 | N=C(N)NCCC[C@H](NC(=O)c1ccccc1)C(=O)N[C@@H](CCCCN)C(=O)N[C@@H](C(=O)N[C@H](C(N)=O)C1CCCCC1)c1ccc(OCc2ccccc2)cc1 | 95.9 | 13.7
18 | N=C(N)NCCC[C@H](NC(=O)c1ccccc1)C(=O)N[C@H](Cc1ccc(N)cc1)C(=O)NCc1ccc(OCc2ccccc2)cc1 | 29.1 | 
